For 51 compounds, IC50 results are on record in US12617773B2, “Azetidin-3-ylmethanol derivatives as CCR6 receptor modulators” (Idorsia Pharmaceuticals Ltd, priority 2020, dated 2026).

The experiment addresses T1, human CCR6 (Homo sapiens, UniProt P51684).
T1 construct: expressed in transfected cells; host or cells: HEK-293
T1 sequence (P51684 1-374): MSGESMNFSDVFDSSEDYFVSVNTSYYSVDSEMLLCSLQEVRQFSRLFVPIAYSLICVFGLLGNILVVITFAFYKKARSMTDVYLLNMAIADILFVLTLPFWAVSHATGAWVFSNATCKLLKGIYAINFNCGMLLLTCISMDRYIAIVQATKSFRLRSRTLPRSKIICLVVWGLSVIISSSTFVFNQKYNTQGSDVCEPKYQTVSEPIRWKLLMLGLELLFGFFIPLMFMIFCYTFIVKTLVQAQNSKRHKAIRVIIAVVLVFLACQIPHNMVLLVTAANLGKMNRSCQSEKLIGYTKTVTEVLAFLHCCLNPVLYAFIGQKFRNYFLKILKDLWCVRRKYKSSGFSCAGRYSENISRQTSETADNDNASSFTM
Briefly: FLIPR assay (inhibition of CCL20-induced calcium signal). Type of experiment: cell-based. Conditions: HEK-293 cells expressing human CCR6; mean values where determined several times; read-out: FLIPR IC50. Put shortly:
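IC50 values come from baseline-corrected peak calcium fluorescence after agonist. The agonist was CCL20 at 10 nM final, added to engineered human CCR6 HEK-293 cells following a 30-min, room-temperature, dark preincubation with serially diluted compound. Readings were taken in a fluorometric imaging plate reader.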
`CC(C)c1ccc([C@](O)(c2cncc(-c3nc(C4CCN(C(=O)CO)CC4)no3)c2)C2(C)CN(C)C2)cc1` [Example 529, 1-[4-(5-{5-[(R)-(1,3-Dimethyl-azetidin-3-yl)-hydroxy-(4-isopropyl-phenyl)-methyl]-pyridin-3-yl}-[1,2,4]oxadiazol-3-yl)-piperidin-1-yl]-2-hydroxy-ethanone]: the IC50 (usually the concentration that inhibits the measured activity by half) was 134 nM.

Consider `CC(C)c1ccc([C@](O)(c2cncc(-c3ncon3)c2)C2(C)CN(C)C2)cc1` [Example 530, (R)-(1,3-Dimethyl-azetidin-3-yl)-(4-isopropyl-phenyl)-(5-[1,2,4]oxadiazol-3-yl-pyridin-3-yl)-methanol], for which the concentration for half-maximal inhibition (IC50) came to 58.7 nM.

Take `CC(=O)N1CCC(c2nc(-c3cncc([C@@](O)(c4ccc(C(C)C)cc4)C4(C)CN(C)C4)c3)no2)CC1` [Example 531, 1-[4-(3-{5-[(R)-(1,3-Dimethyl-azetidin-3-yl)-hydroxy-(4-isopropyl-phenyl)-methyl]-pyridin-3-yl}-[1,2,4]oxadiazol-5-yl)-piperidin-1-yl]-ethanone]: the IC50 is 90 nM.

As to `CN1CC(C)([C@](O)(c2ccc(Br)cc2)c2cncc(-c3noc(C(C)(C)O)n3)c2)C1` [Example 532], the IC50 was determined as 718 nM.

Turning to `CN1CC(C)([C@@](O)(c2cncc(-c3noc(C(C)(C)O)n3)c2)c2ccc3ccccc3c2)C1` [Example 533], the IC50 worked out at 1020 nM.

With `CN1CC(C)([C@](O)(c2ccc(C3(C(F)(F)F)CC3)cc2)c2cncc(-c3noc(C(C)(C)O)n3)c2)C1` [Example 534], the IC50 stood at 47 nM.

Turning to `CN1CC(C)([C@](O)(c2ccc(C(C)(C)C(F)(F)F)cc2)c2cncc(-c3noc(C(C)(C)O)n3)c2)C1` [Example 535], the IC50 amounted to 331 nM.

Take `CC(C)Oc1ccc([C@](O)(c2cncc(-c3noc(C(C)(C)O)n3)c2)C2(C)CN(C)C2)cc1` [Example 536]: the IC50 came to 2450 nM.

Regarding `CN1CC(C)([C@](O)(c2ccc(C(F)(C(F)(F)F)C(F)(F)F)cc2)c2cncc(-c3noc(C(C)(C)O)n3)c2)C1` [Example 537], the IC50 came to 152 nM.

Turning to `CN1CC(C)([C@](O)(c2ccc(S(F)(F)(F)(F)F)cc2)c2cncc(-c3noc(C(C)(C)O)n3)c2)C1` [Example 538], the IC50 is 145 nM.

As to `CC(C)c1ccc([C@](O)(c2cncc(-c3noc(C(C)(C)O)n3)c2)C2(C)CN(C)C2)cc1F` [Example 539], the IC50 stood at 56 nM.

On to `CN1CC(C)([C@](O)(c2ccc(C(C)(C)C)cc2)c2cncc(-c3noc(C(C)(C)O)n3)c2)C1` [Example 540], for which the half-maximal inhibitory concentration (IC50) was 122 nM.

For the compound `CN1CC(C)([C@@](O)(c2cncc(-c3noc(C(C)(C)O)n3)c2)c2ccc3sccc3c2)C1` [Example 541], the IC50 came out at 452 nM.

Consider `CN1CC(C)([C@](O)(c2ccc(C(F)(F)C(F)(F)F)cc2)c2cncc(-c3noc(C(C)(C)O)n3)c2)C1` [Example 542], for which the IC50 amounted to 34.8 nM.

Take `CN1CC(C)([C@](O)(c2ccc(C3(C)CC3)cc2)c2cncc(-c3noc(C(C)(C)O)n3)c2)C1` [Example 543]: the IC50 was determined as 22.8 nM.

For `Cc1cc([C@](O)(c2cncc(-c3noc(C(C)(C)O)n3)c2)C2(C)CN(C)C2)ccc1C(C)C` [Example 544], the half-inhibitory concentration (IC50) was 257 nM.

On to `CN1CC(C)([C@](O)(c2ccc(OC(F)(F)F)cc2)c2cncc(-c3noc(C(C)(C)O)n3)c2)C1` [Example 545], for which the IC50 stood at 61 nM.

For the compound `CC(=O)N1CCC(c2nc(-c3cncc([C@@](O)(c4ccc(Br)cc4)C4(C)CN(C)C4)c3)no2)CC1` [Example 546], the IC50 was 776 nM.

As to `CN1CC(C)([C@](O)(c2ccc(C(C)(C)F)cc2)c2cncc(-c3noc(C(C)(C)O)n3)c2)C1` [Example 547], the IC50 stood at 797 nM.

As for `CN1CC(C)([C@](O)(c2ccc(C(C)(F)F)cc2)c2cncc(-c3noc(C(C)(C)O)n3)c2)C1` [Example 548], the IC50 worked out at 742 nM.

Turning to `CN1CC(C)([C@](O)(c2ccc(C34CC(C3)C4)cc2)c2cncc(-c3noc(C(C)(C)O)n3)c2)C1` [Example 549], the IC50 turned out to be 58.2 nM.

As to `CN1CC(C)([C@](O)(c2ccc(CC(F)(F)F)cc2)c2cncc(-c3noc(C4CCOCC4)n3)c2)C1` [Example 550], the IC50 is 70.8 nM.

Take `CCC(C)(C)c1ccc([C@](O)(c2cncc(-c3noc(C(C)(C)O)n3)c2)C2(C)CN(C)C2)cc1` [Example 551]: the IC50 was 135 nM.

Regarding `CC(=O)N1CCC(c2nc(-c3cncc([C@@](O)(c4ccc(C(C)C)c(F)c4)C4(C)CN(C)C4)c3)no2)CC1` [Example 552], the IC50 was 76.8 nM.

For `CC(=O)N1CCC(c2nc(-c3cncc([C@@](O)(c4ccc(C5(C(F)(F)F)CC5)cc4)C4(C)CN(C)C4)c3)no2)CC1` [Example 553], the IC50 stood at 62.3 nM.

As to `CC(=O)N1CCC(c2nc(-c3cncc([C@@](O)(c4ccc(OC(F)(F)F)cc4)C4(C)CN(C)C4)c3)no2)CC1` [Example 554], the IC50 was determined as 117 nM.

`CC(=O)N1CCC(c2nc(-c3cncc([C@@](O)(c4ccc(OC(C)C)cc4)C4(C)CN(C)C4)c3)no2)CC1` [Example 555]: the IC50 turned out to be 986 nM.

`CC(C)c1ccc([C@](O)(c2cncc(-c3noc(C(C)(C)O)n3)c2)C2(C)CN(C)C2)cc1Cl` [Example 556]: the IC50 was determined as 615 nM.

As to `CN1CC(C)([C@](O)(c2ccc(C3CCC3)cc2)c2cncc(-c3noc(C(C)(C)O)n3)c2)C1` [Example 557], the IC50 stood at 46.3 nM.

For the compound `CC(=O)N1CCC(c2nc(-c3cncc([C@@](O)(c4ccc(C5CCC5)cc4)C4(C)CN(C)C4)c3)no2)CC1` [Example 558], the IC50 stood at 84.5 nM.

On to `CC(=O)N1CCC(c2nc(-c3cncc([C@@](O)(c4cc(F)c(C(C)C)c(F)c4)C4(C)CN(C)C4)c3)no2)CC1` [Example 559], for which the IC50 came to 85.6 nM.

`CC(C)c1c(F)cc([C@](O)(c2cncc(-c3noc(C(C)(C)O)n3)c2)C2(C)CN(C)C2)cc1F` [Example 560]: the IC50 was found to be 74.6 nM.

On to `CC(=O)N1CCC(c2nc(-c3cncc([C@@](O)(c4ccc(OC5CCC5)cc4)C4(C)CN(C)C4)c3)no2)CC1` [Example 561], for which the IC50 came to 766 nM.

On to `CCC(CC)c1ccc(C(O)(c2cncc(-c3noc(C(C)(C)O)n3)c2)C2(C)CN(C)C2)cc1` (stereo not drawn) [Example 562], for which the half-maximal inhibitory concentration (IC50) came to 44.7 nM.

Consider `CCC(CC)c1ccc(C(O)(c2cncc(-c3noc(C4CCN(C(C)=O)CC4)n3)c2)C2(C)CN(C)C2)cc1` (stereo not drawn) [Example 563], for which the IC50 was determined as 45.2 nM.

`CN1CC(C)(C(O)(c2ccc(CC(C)(C)C)cc2)c2cncc(-c3noc(C(C)(C)O)n3)c2)C1` (stereo not drawn) [Example 564]: the IC50 came out at 91.9 nM.

As for `CC(=O)N1CCC(c2nc(-c3cncc(C(O)(c4ccc(CC(C)(C)C)cc4)C4(C)CN(C)C4)c3)no2)CC1` (stereo not drawn) [Example 565], the IC50 is 116 nM.

Regarding `CC(=O)N1CCC(c2nc(-c3cncc(C(O)(c4ccc(C5(C)CC5)cc4)C4(C)CN(C)C4)c3)no2)CC1` (stereo not drawn) [Example 566], the IC50 came out at 209 nM.

With `CCCc1ccc([C@](O)(c2cncc(-c3noc(C(C)(C)O)n3)c2)C2(C)CN(C)C2)cc1` [Example 567], the half-inhibitory concentration (IC50) amounted to 59.1 nM.

On to `CN1CC(C)([C@](O)(c2ccc(C3CC3)cc2)c2cncc(-c3noc(C(C)(C)O)n3)c2)C1` [Example 568], for which the IC50 was 97.6 nM.

In the case of `CCc1ccc([C@](O)(c2cncc(-c3noc(C(C)(C)O)n3)c2)C2(C)CN(C)C2)cc1` [Example 569], the IC50 was found to be 118 nM.

In the case of `CCCCc1ccc([C@](O)(c2cncc(-c3noc(C(C)(C)O)n3)c2)C2(C)CN(C)C2)cc1` [Example 570], the IC50 was found to be 65.8 nM.

As to `CN1CC(C)([C@](O)(c2ccc(C(F)(F)F)cc2)c2cncc(-c3noc(C(C)(C)O)n3)c2)C1` [Example 571], the IC50 turned out to be 1190 nM.

As for `CN1CC(C)([C@](O)(c2ccc(CC(F)(F)F)cc2)c2cncc(-c3noc(C(C)(C)O)n3)c2)C1` [Example 572], the IC50 was found to be 149 nM.

Regarding `CC(C)Cc1ccc([C@](O)(c2cncc(-c3noc(C(C)(C)O)n3)c2)C2(C)CN(C)C2)cc1` [Example 573], the IC50 worked out at 75.9 nM.

As to `CN1CC(C)([C@](O)(c2ccc(OC3CCC3)cc2)c2cncc(-c3noc(C(C)(C)O)n3)c2)C1` [Example 574], the IC50 was 1340 nM.

Take `C=C(C)c1ccc([C@](O)(c2cncc(-c3noc(C(C)(C)O)n3)c2)C2(C)CN(C)C2)cc1` [Example 575]: the IC50 amounted to 103 nM.

`CC(=O)N1CCC(c2nc(-c3cncc([C@@](O)(c4ccc(CC(F)(F)F)cc4)C4(C)CN(C)C4)c3)no2)CC1` [Example 576]: the IC50 was determined as 267 nM.

Take `CCCc1ccc([C@](O)(c2cncc(-c3noc(C4CCN(C(C)=O)CC4)n3)c2)C2(C)CN(C)C2)cc1` [Example 577]: the IC50 was found to be 66.1 nM.

Turning to `CC(=O)N1CCC(c2nc(-c3cncc([C@@](O)(c4ccc(C(C)C)cc4)C4(C)CN(C(C)C)C4)c3)no2)CC1` [Example 578, 1-[4-(3-{5-[(R)-Hydroxy-(1-isopropyl-3-methyl-azetidin-3-yl)-(4-isopropyl-phenyl)-methyl]-pyridin-3-yl}-[1,2,4]oxadiazol-5-yl)-piperidin-1-yl]-ethanone], the IC50 turned out to be 97.2 nM.

`CC(=O)N1CCC(c2nc(-c3cncc([C@@](O)(c4ccc(C(C)C)cc4)C4(C)CN(CC(F)F)C4)c3)no2)CC1` [Example 579, 1-[4-(3-{5-[(R)-[1-(2,2-Difluoro-ethyl)-3-methyl-azetidin-3-yl]-hydroxy-(4-isopropyl-phenyl)-methyl]-pyridin-3-yl}-[1,2,4]oxadiazol-5-yl)-piperidin-1-yl]-ethanone]: the IC50 is 411 nM.
